Laboratory results taken from publication PMC12951562, “SH2scan: Mapping SH2 Domain-Ligand Binding Selectivity for Inhibitors and Degraders” (Journal of Medicinal Chemistry, 2026).
Where two headings read alike, the source gives them in different places.

How the values were obtained:
Test in all cases: biochemical
Format in all cases: binding
VAV1 = molecular target: T1, VAV1 (Homo sapiens, UniProt P15498); details: read-out: percent of DMSO vehicle control; for remaining activity at 10 µM: primary screen
T1 construct: made in house; host or cells: HEK293 (transient transfection), unpurified extract
T1 sequence (P15498 1-845): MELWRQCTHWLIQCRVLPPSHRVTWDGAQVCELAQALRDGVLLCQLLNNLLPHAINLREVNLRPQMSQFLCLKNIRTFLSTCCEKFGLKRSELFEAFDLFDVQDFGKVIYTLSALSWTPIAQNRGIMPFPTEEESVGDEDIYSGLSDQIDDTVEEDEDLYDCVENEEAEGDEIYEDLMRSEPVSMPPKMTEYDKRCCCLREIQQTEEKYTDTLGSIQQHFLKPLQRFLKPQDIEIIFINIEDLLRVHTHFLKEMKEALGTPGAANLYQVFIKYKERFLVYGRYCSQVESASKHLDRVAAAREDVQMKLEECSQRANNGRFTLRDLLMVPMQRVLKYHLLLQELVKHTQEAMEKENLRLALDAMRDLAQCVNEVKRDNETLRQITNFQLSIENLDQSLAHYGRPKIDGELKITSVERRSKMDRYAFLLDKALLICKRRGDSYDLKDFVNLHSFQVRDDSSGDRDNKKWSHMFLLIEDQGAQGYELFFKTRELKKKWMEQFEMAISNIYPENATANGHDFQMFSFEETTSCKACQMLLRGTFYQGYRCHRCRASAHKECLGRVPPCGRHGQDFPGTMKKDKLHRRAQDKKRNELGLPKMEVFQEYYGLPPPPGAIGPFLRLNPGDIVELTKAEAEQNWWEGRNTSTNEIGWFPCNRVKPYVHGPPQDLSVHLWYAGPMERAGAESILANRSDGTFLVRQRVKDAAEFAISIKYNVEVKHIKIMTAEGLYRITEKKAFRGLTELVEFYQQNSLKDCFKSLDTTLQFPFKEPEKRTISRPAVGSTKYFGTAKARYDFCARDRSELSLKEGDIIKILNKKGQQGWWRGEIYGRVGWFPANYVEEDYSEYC

NCK2 = molecular target: T2, NCK2 (Homo sapiens, UniProt O43639); details: read-out: percent of DMSO vehicle control
T2 construct: the DNA-tagged SH2 domain concentrations used in this study were <0.1 nM; made in house; host or cells: HEK293 (transient transfection, unpurified extract)
T2 sequence (O43639 285-380 limits assumed): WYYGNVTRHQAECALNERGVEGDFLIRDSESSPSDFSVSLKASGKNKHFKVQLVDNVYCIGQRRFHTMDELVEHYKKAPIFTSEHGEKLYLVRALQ

TEC = molecular target: T3, TEC (Homo sapiens, UniProt P42680); details: read-out: percent of DMSO vehicle control; for remaining activity at 10 µM: primary screen
T3 construct: made in house; host or cells: HEK293 (transient transfection), unpurified extract
T3 sequence (P42680 1-631): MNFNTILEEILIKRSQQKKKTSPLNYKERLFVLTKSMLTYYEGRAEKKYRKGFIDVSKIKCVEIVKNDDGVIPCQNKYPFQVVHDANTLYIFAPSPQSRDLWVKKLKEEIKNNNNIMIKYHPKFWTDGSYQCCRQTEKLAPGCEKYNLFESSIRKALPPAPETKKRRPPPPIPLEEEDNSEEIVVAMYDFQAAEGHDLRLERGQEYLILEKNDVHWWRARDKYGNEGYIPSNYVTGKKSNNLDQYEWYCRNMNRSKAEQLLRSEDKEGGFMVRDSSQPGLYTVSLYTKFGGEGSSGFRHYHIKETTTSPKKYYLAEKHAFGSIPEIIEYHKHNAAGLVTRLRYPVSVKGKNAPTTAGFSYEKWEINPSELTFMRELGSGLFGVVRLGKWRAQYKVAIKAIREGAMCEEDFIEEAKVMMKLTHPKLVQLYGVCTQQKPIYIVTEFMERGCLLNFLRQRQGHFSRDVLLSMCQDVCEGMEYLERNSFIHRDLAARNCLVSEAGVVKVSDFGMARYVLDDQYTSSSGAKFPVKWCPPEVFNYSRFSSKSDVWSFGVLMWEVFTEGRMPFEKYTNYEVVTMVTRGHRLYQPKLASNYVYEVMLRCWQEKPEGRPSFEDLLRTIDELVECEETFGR

RASA1(SH2dom.C-term.) = molecular target: T4, RASA1(SH2dom.C-term.) (Homo sapiens, UniProt P20936); details: read-out: percent of DMSO vehicle control
T4 construct: SH2dom.C-term. denotes SH2 domain closest to C-terminus of protein; made in house; host or cells: HEK293 (transient transfection, unpurified extract)
T4 sequence (P20936 351-441 limits assumed): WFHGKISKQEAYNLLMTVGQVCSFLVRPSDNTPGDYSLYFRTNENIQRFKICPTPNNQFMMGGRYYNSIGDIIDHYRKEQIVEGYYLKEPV

ABL2 = molecular target: T5, ABL2 (Homo sapiens, UniProt P42684); details: read-out: percent of DMSO vehicle control; for remaining activity at 10 µM: primary screen
T5 construct: the DNA-tagged SH2 domain concentrations used in this study were <0.1 nM; made in house; host or cells: HEK293 (transient transfection; unpurified extract)
T5 sequence (P42684 173-263 limits assumed): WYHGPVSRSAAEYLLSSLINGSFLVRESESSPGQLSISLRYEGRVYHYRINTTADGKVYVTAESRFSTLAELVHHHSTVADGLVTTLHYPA

SHC4 = molecular target: T6, SHC4 (Homo sapiens, UniProt Q6S5L8); details: read-out: percent of DMSO vehicle control
T6 construct: made in house; host or cells: HEK293 (transient transfection), unpurified extract
T6 sequence (Q6S5L8 1-630): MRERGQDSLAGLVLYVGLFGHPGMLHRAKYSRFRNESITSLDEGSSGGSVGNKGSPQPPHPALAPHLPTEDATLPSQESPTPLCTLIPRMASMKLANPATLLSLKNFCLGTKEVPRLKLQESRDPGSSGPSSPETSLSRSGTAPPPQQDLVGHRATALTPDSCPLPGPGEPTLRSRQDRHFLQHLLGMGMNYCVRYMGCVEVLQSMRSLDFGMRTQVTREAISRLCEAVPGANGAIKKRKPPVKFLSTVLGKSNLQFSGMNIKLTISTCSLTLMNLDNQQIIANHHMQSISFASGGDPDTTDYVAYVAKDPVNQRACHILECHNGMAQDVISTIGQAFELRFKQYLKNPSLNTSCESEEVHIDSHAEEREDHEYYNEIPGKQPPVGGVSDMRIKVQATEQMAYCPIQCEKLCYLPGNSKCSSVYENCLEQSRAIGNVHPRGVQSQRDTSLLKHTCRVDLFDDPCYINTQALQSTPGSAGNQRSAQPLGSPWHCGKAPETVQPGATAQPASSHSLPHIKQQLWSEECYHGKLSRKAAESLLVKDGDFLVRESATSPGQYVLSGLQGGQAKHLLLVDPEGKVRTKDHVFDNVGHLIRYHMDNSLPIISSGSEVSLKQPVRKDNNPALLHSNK

HCK = molecular target: T7, HCK (Homo sapiens, UniProt P08631); details: read-out: percent of DMSO vehicle control
T7 construct: the DNA-tagged SH2 domain concentrations used in this study were <0.1 nM; made in house; host or cells: HEK293 (transient transfection, unpurified extract)
T7 sequence (P08631 144-241 limits assumed): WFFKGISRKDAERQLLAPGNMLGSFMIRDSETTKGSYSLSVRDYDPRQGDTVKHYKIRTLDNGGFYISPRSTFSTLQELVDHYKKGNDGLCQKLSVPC

MATK = molecular target: T8, MATK (Homo sapiens, UniProt P42679); details: for percent of DMSO vehicle control at 10 µM / remaining activity at 10 µM: read-out: percent of DMSO vehicle control; for remaining activity at 10 µM: primary screen
T8 construct: the DNA-tagged SH2 domain concentrations used in this study were <0.1 nM; made in house; host or cells: HEK293 (transient transfection, unpurified extract)
T8 sequence (P42679 122-211 limits assumed): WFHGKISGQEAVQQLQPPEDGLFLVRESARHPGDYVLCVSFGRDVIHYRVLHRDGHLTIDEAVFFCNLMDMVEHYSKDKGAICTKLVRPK

Compound | percent of DMSO vehicle control at 10 µM (VAV1) | remaining activity at 10 µM (NCK2) | percent of DMSO vehicle control at 10 µM (TEC) | remaining activity at 10 µM (RASA1(SH2dom.C-term.)) | percent of DMSO vehicle control at 10 µM (ABL2) | remaining activity at 10 µM (SHC4) | remaining activity at 10 µM (HCK) | percent of DMSO vehicle control at 10 µM (MATK) | remaining activity at 10 µM (VAV1) | remaining activity at 10 µM (NCK2; primary screen, 10 μM) | remaining activity at 10 µM (TEC) | remaining activity at 10 µM (RASA1(SH2dom.C-term.); primary screen, 10 μM) | remaining activity at 10 µM (ABL2) | remaining activity at 10 µM (SHC4; primary screen, 10 μM) | remaining activity at 10 µM (HCK; primary screen, 10 μM) | Kd (MATK; dose-response, read-out: KD) | remaining activity at 10 µM (MATK)
NC(=O)CC[C@H](NC(=O)[C@@H]1CC[C@@H]2CCN(C(=O)CCCCCC#Cc3cccc4c3CN(C3CCC(=O)NC3=O)C4=O)C[C@H](NC(=O)c3cc4cc(C(F)(F)P(=O)(O)O)ccc4[nH]3)C(=O)N21)C(=O)NC(c1ccccc1)c1ccccc1 (some centres unmarked) [SD-36] | 116 ± 3% | 80 ± 38.4% | 121 ± 3% | 86.6 ± 9.6% | 126% | 100 ± 4.5% | 56.4 ± 3.2% | 159 ± 5.1% | – | – | – | – | – | – | – | – | –
CC(=O)N1CC[C@H]2CC[C@@H](C(=O)N[C@@H](CCC(N)=O)C(=O)NC(c3ccccc3)c3ccccc3)N2C(=O)[C@@H](NC(=O)c2cc3cc(C(F)(F)P(=O)(O)O)ccc3[nH]2)C1 [SI-109] | 112% | 121% | 135% | 118% | 122% | 136% | 91.9% | 163% | – | – | – | – | – | – | – | – | –
C/C(=C\C(=O)N[C@H](C(=O)N1CCC[C@H]1C(=O)N(c1ccccc1)c1ccc(I)cc1)C(C)(C)C)c1ccc(OP(=O)(O)O)cc1 [STAT6-IN-1] | – | – | – | – | – | – | – | – | 55.3 ± 2.6% | 66.2 ± 8.2% | 75.1 ± 3.7% | 76.6 ± 7.8% | 98.1 ± 4.2% | 77.1 ± 7.5% | 48.8 ± 5.2% | 3 ± 0.49 µM | 6.5 ± 1.8%
CC(C)(C)[C@H](NC(=O)/C=C/c1ccc(OP(=O)(O)O)cc1)C(=O)N1CCC[C@H]1C(=O)N(c1ccccc1)c1ccc(I)cc1 [STAT6-IN-3] | – | – | – | – | – | – | – | – | 67.6 ± 32.1% | 102 ± 68.4% | 136 ± 22.9% | 123 ± 14.3% | 108 ± 3.5% | 90.2 ± 12% | 77.4 ± 4.3% | – | 70.3 ± 45.8%
O=C(COc1ccc2cc(C(=O)Nc3ccccc3)ccc2c1)NCc1ccc(OP(=O)(O)O)c(OP(=O)(O)O)c1 [Stafib-1] | – | – | – | – | – | – | – | – | 106% | 91.4 ± 35.1% | 159% | 97 ± 11.7% | 106% | 103% | 77 ± 19.3% | – | 59.9 ± 60.2%
